Earlier results as cited in US20200000760A1, “METHOD FOR TREATING OVERACTIVE BLADDERS AND A DEVICE FOR STORAGE AND ADMINISTRATION OF TOPICAL OXYBUTYNIN COMPOSITIONS” (Allergan Sales, LLC, priority 2009, published 2020).

How the values were obtained:
[1] = transdermal administration compared to oral administration
[2] = transdermal administration compared to oral administration; remark: listed apart in the source

## CCN(CC)CC#CCOC(=O)C(O)(c1ccccc1)C1CCCCC1 (centres unmarked) [oxybutynin]
[1]
  adverse events: less adverse events
[2]
  oxybutynin:desethyloxybutynin ratio in the plasma: reduced
